PubChem BioAssay (NCI)
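In this assay, cells in 96-well plates receive the compound at five concentrations for 48 hours. Endpoints are linearly interpolated between the surrounding concentrations. Here, GI50 denotes the concentration required for 50% inhibition of growth. The concentration for full growth arrest is given as TGI.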

Columns and labels:
Test in all cases: inhibition of tumour cell growth, NCI panel, 48 h
[1] = tested on: PC-3 prostate
[2] = tested on: SNB-19 CNS
[3] = tested on: SF-295 CNS
[4] = tested on: ACHN renal
[5] = tested on: HS 578T breast
[6] = tested on: NCI-H522 lung
[7] = tested on: CAKI-1 renal
[8] = tested on: SF-268 CNS
[9] = tested on: UACC-257 melanoma
[10] = tested on: SK-MEL-5 melanoma
[11] = tested on: SN12C renal
[12] = tested on: OVCAR-4 ovarian
[13] = tested on: UACC-62 melanoma
[14] = tested on: NCI-H226 lung
[15] = tested on: MCF7 breast
[16] = tested on: DU-145 prostate
[17] = tested on: HOP-92 NSCLC
[18] = tested on: T-47D breast
[19] = tested on: CCRF-CEM leukemia
[20] = tested on: BT-549 breast
[21] = tested on: K-562 leukemia
[22] = tested on: SK-MEL-28 melanoma
[23] = tested on: HCT-116 colon
[24] = tested on: TK-10 renal
[25] = tested on: SR leukemia
[26] = tested on: MDA-MB-231 breast
[27] = tested on: RPMI-8226 leukemia
[28] = tested on: KM12 colon
[29] = tested on: SK-OV-3 ovarian
[30] = tested on: A549 NSCLC
[31] = tested on: NCI-H23 lung
[32] = tested on: MOLT-4 leukemia
[33] = tested on: SW-620 colon
[34] = tested on: 786-0 renal
[35] = tested on: HT29 colon
[36] = tested on: SK-MEL-2 melanoma
[37] = tested on: SF-539 CNS
[38] = tested on: IGROV1 ovarian
[39] = tested on: OVCAR-8 ovarian
[40] = tested on: OVCAR-5 ovarian
[41] = tested on: OVCAR-3 ovarian
[42] = tested on: NCI/ADR-RES ovarian
[43] = tested on: HL-60(TB) leukemia
[44] = tested on: HCC-2998 colon
[45] = tested on: LOX IMVI melanoma
[46] = tested on: NCI-H460 lung
[47] = tested on: HCT-15 colon
[48] = tested on: RXF 393 renal
[49] = tested on: HOP-62 NSCLC
[50] = tested on: U251 CNS
[51] = tested on: UO-31 renal
[52] = tested on: A498 renal
[53] = tested on: SNB-75 CNS
[54] = tested on: COLO 205 colon
[55] = tested on: MDA-MB-435
[56] = tested on: MALME-3M melanoma
[57] = tested on: M14 melanoma
[58] = tested on: EKVX NSCLC

O=c1c2c([nH]c3ccccc13)CCCC2
GI50 [1]: > 100000 nM
TGI [1]: > 100 µM
GI50 [2]: > 100000 nM
TGI [2]: > 100 µM
GI50 [3]: > 100000 nM
TGI [3]: > 100 µM
GI50 [4]: > 100000 nM
TGI [4]: > 100 µM
GI50 [5]: > 100000 nM
TGI [5]: > 100 µM
GI50 [6]: > 100000 nM
TGI [6]: > 100 µM
GI50 [7]: > 100 µM
TGI [7]: > 100 µM
GI50 [8]: > 100000 nM
TGI [8]: > 100 µM
GI50 [9]: > 100000 nM
TGI [9]: > 100 µM
GI50 [10]: 45.3 µM
TGI [10]: > 100 µM
GI50 [11]: > 100000 nM
TGI [11]: > 100000 nM
GI50 [12]: 37 µM
TGI [12]: > 100 µM
GI50 [13]: > 100000 nM
TGI [13]: > 100 µM
GI50 [14]: > 100000 nM
TGI [14]: > 100000 nM
GI50 [15]: > 100000 nM
TGI [15]: > 100 µM
GI50 [16]: > 100000 nM
TGI [16]: > 100 µM
GI50 [17]: 78.4 µM
TGI [17]: > 100 µM
GI50 [18]: > 100000 nM
TGI [18]: > 100000 nM
GI50 [19]: > 100000 nM
TGI [19]: > 100 µM
GI50 [20]: > 100000 nM
TGI [20]: > 100 µM
GI50 [21]: > 100000 nM
TGI [21]: > 100 µM
GI50 [22]: > 100000 nM
TGI [22]: > 100 µM
GI50 [23]: > 100000 nM
TGI [23]: > 100 µM
GI50 [24]: > 100000 nM
TGI [24]: > 100 µM
GI50 [25]: > 100000 nM
TGI [25]: > 100 µM
GI50 [26]: > 100000 nM
TGI [26]: > 100 µM
GI50 [27]: 81.5 µM
TGI [27]: > 100 µM
GI50 [28]: > 100000 nM
TGI [28]: > 100 µM
GI50 [29]: > 100000 nM
TGI [29]: > 100 µM
GI50 [30]: > 100000 nM
TGI [30]: > 100 µM
GI50 [31]: > 100000 nM
TGI [31]: > 100 µM
GI50 [32]: > 100000 nM
TGI [32]: > 100 µM
GI50 [33]: > 100000 nM
TGI [33]: > 100 µM
GI50 [34]: > 100000 nM
TGI [34]: > 100 µM
GI50 [35]: > 100000 nM
TGI [35]: > 100 µM
GI50 [36]: 60.4 µM
TGI [36]: > 100 µM
GI50 [37]: > 100000 nM
TGI [37]: > 100 µM
GI50 [38]: > 100000 nM
TGI [38]: > 100 µM
GI50 [39]: > 100000 nM
TGI [39]: > 100 µM
GI50 [40]: > 100000 nM
TGI [40]: > 100 µM
GI50 [41]: > 100000 nM
TGI [41]: > 100 µM
GI50 [42]: > 100000 nM
TGI [42]: > 100 µM
GI50 [43]: > 100000 nM
TGI [43]: > 100 µM
GI50 [44]: > 100000 nM
TGI [44]: > 100 µM
GI50 [45]: > 100000 nM
TGI [45]: > 100 µM
GI50 [46]: > 100000 nM
TGI [46]: > 100 µM
GI50 [47]: > 100000 nM
TGI [47]: > 100 µM
GI50 [48]: > 100000 nM
TGI [48]: > 100 µM
GI50 [49]: > 100000 nM
TGI [49]: > 100 µM
GI50 [50]: > 100000 nM
TGI [50]: > 100 µM
GI50 [51]: 49.7 µM
TGI [51]: > 100 µM
GI50 [52]: 1740 nM
TGI [52]: 55.8 µM
GI50 [53]: > 100000 nM
TGI [53]: > 100 µM
GI50 [54]: > 100000 nM
TGI [54]: > 100 µM
GI50 [55]: > 100000 nM
TGI [55]: > 100 µM
GI50 [56]: > 100000 nM
TGI [56]: > 100 µM

CCNCCCn1c2c(c3ccc(F)cc3c1=O)C(=O)c1cc(OC)cnc1-2
GI50 [1]: 301 nM
TGI [1]: 10.3 µM
GI50 [2]: 160 nM
TGI [2]: 1.26 µM
GI50 [3]: 194 nM
TGI [3]: 0.721 µM
GI50 [4]: 127 nM
TGI [4]: 0.371 µM
GI50 [5]: 1620 nM
TGI [5]: 13.5 µM
GI50 [6]: 56.2 nM
TGI [6]: 1.02 µM
GI50 [8]: 386 nM
TGI [8]: 10.9 µM
GI50 [9]: 403 nM
TGI [9]: 2.16 µM
GI50 [10]: 0.254 µM
TGI [10]: 1.06 µM
GI50 [11]: 151 nM
TGI [11]: 763 nM
GI50 [12]: 0.46 µM
TGI [12]: 11 µM
GI50 [13]: 341 nM
TGI [13]: 1.85 µM
GI50 [14]: 144 nM
TGI [14]: 327 nM
GI50 [15]: 42.7 nM
TGI [15]: 2.75 µM
GI50 [57]: 336 nM
TGI [57]: 1720 nM
GI50 [16]: 215 nM
TGI [16]: 1.37 µM
GI50 [17]: 0.36 µM
TGI [17]: 4.39 µM
GI50 [18]: 145 nM
TGI [18]: 761 nM
GI50 [58]: 328 nM
TGI [58]: 2780 nM
GI50 [19]: 164 nM
TGI [19]: 1.12 µM
GI50 [20]: 936 nM
TGI [20]: 5.14 µM
GI50 [21]: 206 nM
TGI [21]: 1.68 µM
GI50 [22]: 1230 nM
TGI [22]: 3.45 µM
GI50 [23]: 136 nM
TGI [23]: 0.55 µM
GI50 [24]: 296 nM
TGI [24]: 1.67 µM
GI50 [25]: 127 nM
TGI [25]: 0.978 µM
GI50 [26]: 404 nM
TGI [26]: 1.93 µM
GI50 [27]: 0.144 µM
TGI [27]: 0.692 µM
GI50 [28]: 259 nM
TGI [28]: 10 µM
GI50 [29]: 221 nM
TGI [29]: 0.752 µM
GI50 [30]: 64.3 nM
TGI [30]: 0.256 µM
GI50 [31]: 302 nM
TGI [31]: 1.54 µM
GI50 [32]: 48.5 nM
TGI [32]: 0.369 µM
GI50 [33]: 170 nM
TGI [33]: 5.55 µM
GI50 [34]: 195 nM
TGI [34]: 0.755 µM
GI50 [35]: 147 nM
TGI [35]: 0.86 µM
GI50 [36]: 1.13 µM
TGI [36]: 4.12 µM
GI50 [37]: 320 nM
TGI [37]: 1.39 µM
GI50 [38]: 330 nM
TGI [38]: 4.49 µM
GI50 [39]: 183 nM
TGI [39]: 0.992 µM
GI50 [40]: 331 nM
TGI [40]: 1.9 µM
GI50 [41]: 282 nM
TGI [41]: 2.14 µM
GI50 [42]: 374 nM
TGI [42]: 4.89 µM
GI50 [43]: 202 nM
TGI [43]: 0.644 µM
GI50 [44]: 1060 nM
TGI [44]: 2.5 µM
GI50 [45]: 141 nM
TGI [45]: 0.319 µM
GI50 [46]: 45.7 nM
TGI [46]: 0.222 µM
GI50 [47]: 228 nM
TGI [47]: 3.32 µM
GI50 [48]: 260 nM
TGI [48]: 0.922 µM
GI50 [49]: 149 nM
TGI [49]: 0.472 µM
GI50 [50]: 100 nM
TGI [50]: 0.506 µM
GI50 [51]: 0.123 µM
TGI [51]: 0.568 µM
GI50 [52]: 248 nM
TGI [52]: 1.35 µM
GI50 [53]: 364 nM
TGI [53]: 5.03 µM
GI50 [54]: 68.8 nM
TGI [54]: 1.16 µM
GI50 [55]: 477 nM
TGI [55]: 2.13 µM
GI50 [56]: 329 nM
TGI [56]: 1.44 µM

COc1cc(Nc2nc3ccccc3n3cccc23)cc(OC)c1OC
TGI [1]: > 100 µM
TGI [2]: > 100 µM
TGI [3]: > 100 µM
TGI [4]: > 100 µM
TGI [5]: > 100 µM
TGI [6]: > 100 µM
TGI [7]: > 100 µM
TGI [8]: > 100 µM
TGI [9]: > 100 µM
TGI [10]: > 100 µM
TGI [13]: > 100 µM
TGI [15]: > 100 µM
TGI [57]: > 100000 nM
TGI [16]: > 100 µM
TGI [17]: > 100 µM
TGI [18]: 821 nM
TGI [58]: > 100000 nM
TGI [19]: > 100 µM
TGI [20]: > 100 µM
TGI [21]: > 100 µM
TGI [22]: > 100 µM
TGI [23]: > 100 µM
TGI [24]: > 100 µM
TGI [25]: > 100 µM
TGI [26]: > 100 µM
TGI [27]: > 100 µM
TGI [28]: > 100 µM
TGI [29]: > 100 µM
TGI [30]: > 100 µM
TGI [31]: > 100 µM
TGI [32]: > 100 µM
TGI [33]: > 100 µM
TGI [34]: > 100 µM
TGI [35]: > 100 µM
TGI [36]: > 100 µM
TGI [37]: > 100 µM
TGI [38]: > 100 µM
TGI [39]: > 100 µM
TGI [40]: > 100 µM
TGI [41]: > 100 µM
TGI [42]: > 100 µM
TGI [43]: > 100 µM
TGI [44]: > 100 µM
TGI [45]: > 100 µM
TGI [46]: > 100 µM
TGI [47]: > 100 µM
TGI [48]: 99.6 µM
TGI [49]: 72.9 µM
TGI [50]: > 100 µM
TGI [51]: > 100 µM
TGI [52]: > 100 µM
TGI [54]: > 100 µM
TGI [55]: > 100 µM
TGI [56]: > 100 µM
